In ChEMBL document CHEMBL1137252, “Substituted 5-benzyl-2-phenyl-5H-imidazo[4,5-c]pyridines: a new class of pestivirus inhibitors” (Bioorg Med Chem Lett, 2006):
pEC50: −log10 of the molar value. The source made the active and inactive calls. The rule behind the calls is not given here.

How the values were obtained:
[1] = system: Bovine viral diarrhea virus 1; experiment: Antiviral activity against BVDV NADL in MDBK cells; assay type: functional, organism-based; details: Bovine viral diarrhea virus isolates and strains
[2] = Cytotoxicity against MDBK cells; assay type: cell-based, Bos taurus; details: cattle
Hepatitis C virus = experiment: Antiviral activity against HCV 1a; assay type: functional, organism-based; details: Hepacivirus hominis; subtype 1a
[3] = Selectivity index, CC50 for MDBK cells/EC50 for BVDV NADL; assay type: functional

## O=C(O)c1ccc(Cn2ccc3nc(-c4ccccc4)nc-3c2)cc1
[1]
  pEC50: < 4.00
[2]
  CC50: > 100 µM
Hepatitis C virus
  Activity: inactive

## Brc1cccc(Cn2ccc3nc(-c4ccccc4)nc-3c2)c1
[3]
  Ratio CC50/EC50: 304
[1]
  pEC50: 6.55
[2]
  CC50: 85 µM
Hepatitis C virus
  Activity: inactive

## Fc1cccc(F)c1Cn1cccc2nc(-c3c(F)cccc3F)nc1-2
[3]
  Ratio CC50/EC50: <=3
[1]
  pEC50: ≤ 4.49
[2]
  CC50: > 100 µM
Hepatitis C virus
  Activity: inactive

## Fc1ccccc1Cn1ccc2nc(-c3ccccc3)nc-2c1
[3]
  Ratio CC50/EC50: >1000
[1]
  pEC50: 7.00
[2]
  CC50: > 100 µM
Hepatitis C virus
  Activity: inactive

## FC(F)(F)c1ccccc1Cn1ccc2nc(-c3ccccc3)nc-2c1
[3]
  Ratio CC50/EC50: >67
[1]
  pEC50: 5.82
[2]
  CC50: > 100 µM
Hepatitis C virus
  Activity: inactive

## Clc1ccc(Cn2ccc3nc(-c4ccccc4)nc-3c2)s1
[3]
  Ratio CC50/EC50: >476
[1]
  pEC50: 6.68
[2]
  CC50: > 100 µM
Hepatitis C virus
  Activity: inactive

## Fc1cccc(F)c1Cn1ccc2nc(-c3ccccc3)nc-2c1
[3]
  Ratio CC50/EC50: >435
[1]
  pEC50: 6.64
[2]
  CC50: > 100 µM
Hepatitis C virus
  Activity: inactive

## Fc1cccc(F)c1-c1nc2ccn(Cc3ccccc3)cc-2n1
[3]
  Ratio CC50/EC50: >25
[1]
  pEC50: 5.40
[2]
  CC50: > 100 µM
Hepatitis C virus
  Activity: inactive

## c1ccc(-c2nc3cc[nH]cc-3n2)cc1
[3]
  Ratio CC50/EC50: >10
[1]
  pEC50: 5.00
[2]
  CC50: > 100 µM
Hepatitis C virus
  Activity: inactive

## c1ccc(-c2nc3ccn(Cc4ccccn4)cc-3n2)cc1
[3]
  Ratio CC50/EC50: >63
[1]
  pEC50: 5.80
[2]
  CC50: > 100 µM
Hepatitis C virus
  Activity: inactive

## COc1ccc(Cn2ccc3nc(-c4ccccc4)nc-3c2)cc1
[3]
  Ratio CC50/EC50: >714
[1]
  pEC50: 6.85
[2]
  CC50: > 100 µM
Hepatitis C virus
  Activity: inactive

## Brc1ccc(Cn2ccc3nc(-c4ccccc4)nc-3c2)cc1
[3]
  Ratio CC50/EC50: 1186
[1]
  pEC50: 7.15
Hepatitis C virus
  Activity: inactive

## Clc1ccccc1Cn1ccc2nc(-c3ccccc3)nc-2c1
[3]
  Ratio CC50/EC50: >526
[1]
  pEC50: 6.72
[2]
  CC50: > 100 µM
Hepatitis C virus
  Activity: inactive

## Clc1ccc(Cn2ccc3nc(-c4ccccc4)nc-3c2)cc1Cl
[3]
  Ratio CC50/EC50: 645
[1]
  pEC50: 6.96
[2]
  CC50: 71 µM
Hepatitis C virus
  Activity: inactive

## CC(C)(C)c1ccc(Cn2ccc3nc(-c4ccccc4)nc-3c2)cc1
[3]
  Ratio CC50/EC50: 45
[1]
  pEC50: 6.31
[2]
  CC50: 22 µM
Hepatitis C virus
  Activity: inactive

## FC(F)(F)c1ccc(Cn2ccc3nc(-c4ccccc4)nc-3c2)cc1
[3]
  Ratio CC50/EC50: 455
[1]
  pEC50: 6.66
[2]
  CC50: 84 µM
Hepatitis C virus
  Activity: inactive

## Cc1ccc(Cn2ccc3nc(-c4ccccc4)nc-3c2)cc1
[3]
  Ratio CC50/EC50: >769
[1]
  pEC50: 6.89
[2]
  CC50: > 100 µM
Hepatitis C virus
  Activity: inactive

## c1ccc(-c2nc3ccn(Cc4cccc5ccccc45)cc-3n2)cc1
[3]
  Ratio CC50/EC50: 1017
[1]
  pEC50: 7.22
[2]
  CC50: 61 µM
Hepatitis C virus
  Activity: inactive

## Ic1ccc(Cn2ccc3nc(-c4ccccc4)nc-3c2)cc1
[3]
  Ratio CC50/EC50: 183
[1]
  pEC50: 6.92
[2]
  CC50: 22 µM
Hepatitis C virus
  Activity: inactive

## COc1ccccc1Cn1ccc2nc(-c3ccccc3)nc-2c1
[3]
  Ratio CC50/EC50: >370
[1]
  pEC50: 6.57
[2]
  CC50: > 100 µM
Hepatitis C virus
  Activity: inactive

## Fc1cccc(F)c1Cn1c(-c2c(F)cccc2F)nc2cnccc21
[3]
  Ratio CC50/EC50: >6
[1]
  pEC50: 4.79
[2]
  CC50: > 100 µM
Hepatitis C virus
  Activity: inactive

## c1ccc(-c2nc3ccn(CC4CCCCC4)cc-3n2)cc1
[3]
  Ratio CC50/EC50: >118
[1]
  pEC50: 6.07
[2]
  CC50: > 100 µM
Hepatitis C virus
  Activity: inactive

## c1ccc(-c2ccc(Cn3ccc4nc(-c5ccccc5)nc-4c3)cc2)cc1
[3]
  Ratio CC50/EC50: 225
[1]
  pEC50: 7.10
[2]
  CC50: 18 µM
Hepatitis C virus
  Activity: inactive

## FC(F)(F)Oc1ccc(Cn2ccc3nc(-c4ccccc4)nc-3c2)cc1
[3]
  Ratio CC50/EC50: 244
[1]
  pEC50: 6.57
[2]
  CC50: 66 µM
Hepatitis C virus
  Activity: inactive

## CC(C)=CCn1ccc2nc(-c3ccccc3)nc-2c1
[3]
  Ratio CC50/EC50: >33
[1]
  pEC50: 5.52
[2]
  CC50: > 100 µM
Hepatitis C virus
  Activity: inactive

## CC(c1ccccc1)n1ccc2nc(-c3ccccc3)nc-2c1 (centres undefined)
[3]
  Ratio CC50/EC50: >48
[1]
  pEC50: 5.68
[2]
  CC50: > 100 µM
Hepatitis C virus
  Activity: inactive

## Cc1ccn(Cc2c(F)cccc2F)c2nc(-c3c(F)cccc3F)nc1-2
[3]
  Ratio CC50/EC50: <=1.1
[1]
  pEC50: ≤ 4.06
[2]
  CC50: > 100 µM
Hepatitis C virus
  Activity: inactive

## COc1cccc(Cn2ccc3nc(-c4ccccc4)nc-3c2)c1
[3]
  Ratio CC50/EC50: >200
[1]
  pEC50: 6.30
[2]
  CC50: > 100 µM
Hepatitis C virus
  Activity: inactive

## c1ccc(-c2nc3ccn(Cc4ccc5ccccc5c4)cc-3n2)cc1
[3]
  Ratio CC50/EC50: 13
[1]
  pEC50: 5.30
[2]
  CC50: 67 µM
Hepatitis C virus
  Activity: inactive

## CCn1ccc2nc(-c3ccccc3)nc-2c1
[3]
  Ratio CC50/EC50: >7
[1]
  pEC50: 4.82
[2]
  CC50: > 100 µM
Hepatitis C virus
  Activity: inactive

## Brc1ccccc1Cn1ccc2nc(-c3ccccc3)nc-2c1
[3]
  Ratio CC50/EC50: >357
[1]
  pEC50: 6.55
[2]
  CC50: > 100 µM
Hepatitis C virus
  Activity: inactive

## C(=C\c1ccccc1)/Cn1ccc2nc(-c3ccccc3)nc-2c1
[3]
  Ratio CC50/EC50: 459
[1]
  pEC50: 6.77
[2]
  CC50: 78 µM
Hepatitis C virus
  Activity: inactive

## CC(C)N(CCn1ccc2nc(-c3ccccc3)nc-2c1)C(C)C
[3]
  Ratio CC50/EC50: >45
[1]
  pEC50: 5.66
[2]
  CC50: > 100 µM
Hepatitis C virus
  Activity: inactive

## c1ccc(CCCn2ccc3nc(-c4ccccc4)nc-3c2)cc1
[3]
  Ratio CC50/EC50: >143
[1]
  pEC50: 6.15
[2]
  CC50: > 100 µM
Hepatitis C virus
  Activity: inactive

## Cc1cccc(Cn2ccc3nc(-c4ccccc4)nc-3c2)c1
[3]
  Ratio CC50/EC50: >167
[1]
  pEC50: 6.22
[2]
  CC50: > 100 µM
Hepatitis C virus
  Activity: inactive

## Fc1ccc(Cn2ccc3nc(-c4ccccc4)nc-3c2)cc1
[3]
  Ratio CC50/EC50: >833
[1]
  pEC50: 6.92
[2]
  CC50: > 100 µM
Hepatitis C virus
  Activity: inactive

## Cc1ccccc1Cn1ccc2nc(-c3ccccc3)nc-2c1
[3]
  Ratio CC50/EC50: >333
[1]
  pEC50: 6.52
[2]
  CC50: > 100 µM
Hepatitis C virus
  Activity: inactive

## Clc1cccc(Cn2ccc3nc(-c4ccccc4)nc-3c2)c1
[3]
  Ratio CC50/EC50: >476
[1]
  pEC50: 6.68
[2]
  CC50: > 100 µM
Hepatitis C virus
  Activity: inactive

## N#Cc1ccccc1Cn1ccc2nc(-c3ccccc3)nc-2c1
[3]
  Ratio CC50/EC50: >132
[1]
  pEC50: 6.12
[2]
  CC50: > 100 µM
Hepatitis C virus
  Activity: inactive

## c1ccc(-c2nc3ccn(Cc4cccnc4)cc-3n2)cc1
[3]
  Ratio CC50/EC50: >59
[1]
  pEC50: 5.77
[2]
  CC50: > 100 µM
Hepatitis C virus
  Activity: inactive

## Fc1cccc(F)c1Cn1ccc2nc(-c3c(F)cccc3F)nc-2c1
[3]
  Ratio CC50/EC50: >65
[1]
  pEC50: 5.82
[2]
  CC50: > 100 µM
Hepatitis C virus
  Activity: inactive

## FC(F)(F)c1cccc(Cn2ccc3nc(-c4ccccc4)nc-3c2)c1
[3]
  Ratio CC50/EC50: 408
[1]
  pEC50: 6.62
[2]
  CC50: 98 µM
Hepatitis C virus
  Activity: inactive

## Fc1cccc(Cn2ccc3nc(-c4ccccc4)nc-3c2)c1
[3]
  Ratio CC50/EC50: >667
[1]
  pEC50: 6.82
[2]
  CC50: > 100 µM
Hepatitis C virus
  Activity: inactive

## c1ccc(CCCCn2ccc3nc(-c4ccccc4)nc-3c2)cc1
[3]
  Ratio CC50/EC50: 45
[1]
  pEC50: 5.68
[2]
  CC50: 95 µM
Hepatitis C virus
  Activity: inactive

## CC(C)CCn1ccc2nc(-c3ccccc3)nc-2c1
[3]
  Ratio CC50/EC50: >26
[1]
  pEC50: 5.42
[2]
  CC50: > 100 µM
Hepatitis C virus
  Activity: inactive

## c1ccc(Cn2ccc3nc(-c4ccccc4)nc-3c2)cc1
[3]
  Ratio CC50/EC50: >400
[1]
  pEC50: 6.60
[2]
  CC50: > 100 µM
Hepatitis C virus
  Activity: inactive

## Fc1cccc(F)c1Cn1c(-c2c(F)cccc2F)nc2ccncc21
[3]
  Ratio CC50/EC50: <=2
[1]
  pEC50: ≤ 4.32
[2]
  CC50: 99 µM
Hepatitis C virus
  Activity: inactive

## Clc1ccc(Cn2ccc3nc(-c4ccccc4)nc-3c2)cc1
[3]
  Ratio CC50/EC50: >1250
[1]
  pEC50: 7.10
[2]
  CC50: > 100 µM
Hepatitis C virus
  Activity: inactive

## c1ccc(-c2nc3ccn(Cc4ccncc4)cc-3n2)cc1
[3]
  Ratio CC50/EC50: >50
[1]
  pEC50: 5.70
[2]
  CC50: > 100 µM
Hepatitis C virus
  Activity: inactive

## N#Cc1cccc(Cn2ccc3nc(-c4ccccc4)nc-3c2)c1
[3]
  Ratio CC50/EC50: >25
[1]
  pEC50: 5.40
[2]
  CC50: > 100 µM
Hepatitis C virus
  Activity: inactive

## Fc1cccc(F)c1-c1nc2ccn(CCc3ccccc3)cc-2n1
[3]
  Ratio CC50/EC50: >2
[1]
  pEC50: 4.24
[2]
  CC50: > 100 µM
Hepatitis C virus
  Activity: inactive

## CCC(CC)Cn1ccc2nc(-c3ccccc3)nc-2c1
[3]
  Ratio CC50/EC50: >52
[1]
  pEC50: 5.72
[2]
  CC50: > 100 µM
Hepatitis C virus
  Activity: inactive

## c1ccc(OCCn2ccc3nc(-c4ccccc4)nc-3c2)cc1
[3]
  Ratio CC50/EC50: >370
[1]
  pEC50: 6.57
[2]
  CC50: > 100 µM
Hepatitis C virus
  Activity: inactive

## N#Cc1ccc(Cn2ccc3nc(-c4ccccc4)nc-3c2)cc1
[3]
  Ratio CC50/EC50: >435
[1]
  pEC50: 6.64
[2]
  CC50: > 100 µM
Hepatitis C virus
  Activity: inactive
